The values that follow come from patent publication US12202808B2, “Substituted antivirals for treating coronavirus infection” (Erasmus University Medical Center Rotterdam, priority 2021, dated 2025).

In experiment [1] the test system is SARS-CoV-2. In kind it is cell-based. The settings on record: bronchiolar organoid-derived cultures, MOI 0.1, 2-72 h p.i., most pronounced at 72 h p.i.
Experiment [2] has as its system Bronchiolar organoid-derived cultures. The class given is cell-based, human.
Experiment [3] concerns SARS-CoV-2. In kind it is cell-based. The settings on record: bronchioalveolar organoid-derived cultures, 10 μM, MOI 0.1, 2-72 h p.i.

Where two headings read alike, the source gives them in different places.

In the case of `CO[C@H]1CN(C)C(=O)c2cc(NC(=O)NC(C)C)ccc2OC[C@H](C)N(Cc2ccc(-c3ccccn3)cc2)C[C@@H]1C` [Bafcilin1], the “inhibition of SARS-CoV-2 replication as compared to the DMSO control” value in experiment [1] (1 μM) is given as “inhibited SARS-CoV-2 replication”. In addition, the “inhibition of SARS-CoV-2 replication as compared to the DMSO control” value in experiment [1] (10 μM) was “inhibited SARS-CoV-2 replication”. Further, in experiment [2] (1 μM, 10 μM and common between both treatments), the “GSEA (Enrichr, COVID-19 Related Gene Sets) of treatment affected genes” value is “significant enrichment of genes upregulated upon SARS-CoV-2 infection”. Further, in experiment [2] (1 μM, 24 h treatment), the “number of genes affected (differentially expressed) as compared to DMSO” value stood at 653 genes. Besides, in experiment [2] (10 μM), the “Enrichr analysis of genes downregulated by treatment” value is listed as “enriched for genes upregulated upon SARS-CoV-2 or SARS-CoV-1 infection” and the “Enrichr analysis of genes upregulated by treatment” value was “enriched for genes downregulated upon SARS-CoV-2 or MERS-CoV infection”. For the same molecule, the “number of genes differentially expressed in the same direction in both concentration groups” value in experiment [2] (common to 1 μM and 10 μM, 24 h treatment) stood at 437 genes. Moreover, in experiment [3], the “inhibition of SARS-CoV-2 replication” value is “inhibited SARS-CoV-2 replication”.
